# Laboratory results as given in US20140369979A1, “VECTOR SIMULTANEOUSLY EXPRESSING DODECAMERIC TRAIL AND HSV-TK SUICIDE GENES, AND ANTICANCER STEM CELL THERAPEUTIC AGENT USING SAME” (POSTECH ACADEMY-INDUSTRY FOUNDATION, priority 2012, published 2014).
# Assays:
# MSC/dTRAIL-TK = test: Survival rate of MSC/dTRAIL-TK after GCV treatment (MTS method); format: cell-based, rat; conditions: 100 μM GCV, one week after treatment
# Procedure: In order to examine the suicide induction effect of MSC/dTRAIL-TK by GCV treatment, cells were treated with 10, 30, and 100 μM of GCV. From 1 day after GCV treatment, survival rate of MSC/dTRAIL-TK was examined by an MTS method every other day.
# [1] = test system: TRAIL expression by MSC/dTRAIL-TK; test: TRAIL expression of MSC/dTRAIL-TK after GCV treatment (ELISA of culture broth); format: cell-based, rat; conditions: GCV 10, 30, 100 μM, culture broth every 24 hours
# Procedure: Next, in order to examine whether TRAIL expression is reduced by MSC/dTRAIL-TK apoptosis, GCV was treated at the same concentrations, and the culture broth was collected every 24 hours to examine TRAIL expression by ELISA (enzyme-linked immunosorbent assay).
smiles,measurement,setting,value
"Nc1nc(O)c2ncn(COC(CO)CO)c2n1 [GCV, ganciclovir]",survival rate of MSC/dTRAIL-TK,MSC/dTRAIL-TK,almost all cells were eliminated
same,TRAIL expression,[1],TRAIL expression was reduced
